The test concerns the target GDP-loaded KRAS G12D (Homo sapiens, UniProt P01116, G12D). The test is described as follows: KRAS G12D Probe Displacement Assay. The format is binding. To be noted: KRAS G12D 0.5 nM, biotinylated probe 2 4 nM; Table 6 letters; read-out: KRAS G12D Probe Displacement Assay IC50 (class).

pIC50: −log10 of the molar value.

One may read the pIC50 as the IC50 on a negative log10 scale, so that one unit is a factor of ten.

Sequence of GDP-loaded KRAS G12D (P01116 1-188 isoform P01116-2 G12D): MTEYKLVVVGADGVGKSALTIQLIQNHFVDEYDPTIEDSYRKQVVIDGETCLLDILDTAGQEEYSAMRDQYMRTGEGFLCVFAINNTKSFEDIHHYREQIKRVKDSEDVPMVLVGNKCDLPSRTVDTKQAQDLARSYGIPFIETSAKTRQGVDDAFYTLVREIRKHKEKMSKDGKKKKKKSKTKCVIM

With `N#CCCNC1C[C@H]2CC[C@@H]1N2c1nc(OC[C@@]23CCCN2C[C@H](F)C3)nc2c(F)c(-c3ccc(F)c4sc(N)nc34)c(C(F)(F)F)cc12` (stereo partly drawn) [Example E124, 3-(((1S,4R)-7-(7-(2-amino-7-fluorobenzo[d]thiazol-4-yl)-8-fluoro-2-(((2R,7aS)-2-fluorotetrahydro-1H-pyrrolizin-7a(5H)-yl)methoxy)-6-(trifluoromethyl)quinazolin-4-yl)-7-azabicyclo[2.2.1]heptan-2-yl)amino)propanenitrile], the pIC50 was > 7.30.

As to `CN(C)C(=O)CCNC1C[C@H]2CC[C@@H]1N2c1nc(OC[C@@]23CCCN2C[C@H](F)C3)nc2c(F)c(-c3ccc(F)c4sc(N)nc34)c(C(F)(F)F)cc12` (stereo partly drawn) [Example E99, 3-(((1S,4R)-7-(7-(2-amino-7-fluorobenzo[d]thiazol-4-yl)-8-fluoro-2-(((2R,7aS)-2-fluorotetrahydro-1H-pyrrolizin-7a(5H)-yl)methoxy)-6-(trifluoromethyl)quinazolin-4-yl)-7-azabicyclo [2.2.1]heptan-2-yl)amino)-N,N-dimethyl propanamide], the pIC50 is > 7.30. As to `C[C@@H](CN1C2CCC1CC(C#N)C2)Oc1nc(N2CC3CCC(C2)N3)c2cc(Cl)c(-c3ccc(F)c4sc(N)c(C#N)c34)c(F)c2n1` (stereo partly drawn) [Example E115, 8-((2S)-2-((7-(2-amino-3-cyano-7-fluorobenzo[b]thiophen-4-yl)-4-(3,8-diazabicyclo[3.2.1]octan-3-yl)-6-chloro-8-fluoroquinazolin-2-yl)oxy)propyl)-8-azabicyclo [3.2.1]octane-3-carbonitrile], the negative logarithm of the IC50 (pIC50) is > 7.30. For `Cc1cc(N)nc(-c2c(Cl)cc3c(N4CC5CCC(C4)N5)nc(OCC4(C#N)CCOC4)nc3c2F)c1C(F)(F)F` (stereo not shown) [Example E206, 3-(((7-(6-amino-4-methyl-3-(trifluoromethyl)pyridin-2-yl)-4-(3,8-diazabicyclo[3.2.1]octan-3-yl)-6-chloro-8-fluoroquinazolin-2-yl)oxy)methyl)tetrahydrofuran-3-carbonitrile], the pIC50 is > 7.30. Turning to `Oc1cc(F)c(C(F)(F)F)c(-c2c(Cl)cc3c(N4CC5CCC(C4)N5)nc(OC[C@@]45CCCN4C[C@H](F)C5)nc3c2F)c1` [Example E126, 3-(4-(3,8-diazabicyclo[3.2.1]octan-3-yl)-6-chloro-8-fluoro-2-(((2R,7aS)-2-fluorotetrahydro-1H-pyrrolizin-7a(5H)-yl)methoxy)quinazolin-7-yl)-5-fluoro-4-(trifluoromethyl)phenol], the pIC50 is > 7.30. Next, `Cc1cc(N)nc(-c2c(Cl)cc3c(N4CC5CCC(C4)N5)nc(OCC4(CO)CCC4)nc3c2F)c1C(F)(F)F` [Example E200, (1-(((7-(6-amino-4-methyl-3-(trifluoromethyl)pyridin-2-yl)-4-(3,8-diazabicyclo[3.2.1]octan-3-yl)-6-chloro-8-fluoroquinazolin-2-yl)oxy)methyl)cyclobutyl) methanol]: > 7.30; `Cc1nc(N)nc(-c2c(Cl)cc3c(N4CC5CCC(C4)N5)nc(OC[C@@]45CCCN4C[C@H](F)C5)nc3c2F)c1C(F)(F)F` [Example E112, 4-(4-(3,8-diazabicyclo[3.2.1]octan-3-yl)-6-chloro-8-fluoro-2-(((2R,7aS)-2-fluorotetrahydro-1H-pyrrolizin-7a(5H)-yl)methoxy)quinazolin-7-yl)-6-methyl-5-(trifluoromethyl)pyrimidin-2-amine]: > 7.30; `Cc1cc(N)nc(-c2c(Cl)cc3c(N4CC5CCC(C4)N5)nc(OCC4(C)CCC(=O)NC4)nc3c2F)c1C(F)(F)F` (stereo not shown) [Example E225, 5-(((7-(6-amino-4-methyl-3-(trifluoromethyl)pyridin-2-yl)-4-(3,8-diazabicyclo[3.2.1]octan-3-yl)-6-chloro-8-fluoroquinazolin-2-yl)oxy)methyl)-5-methylpiperidin-2-one]: > 7.30. Next, `N#Cc1c(N)sc2c(F)ccc(-c3c(C(F)(F)F)cc4c(N5CC6CCC(C5)N6)nc(OC[C@@]56CCCN5C[C@H](F)C6)nc4c3F)c12` [Example E104, 4-(4-(3,8-diazabicyclo[3.2.1]octan-3-yl)-8-fluoro-2-(((2R,7aS)-2-fluorotetrahydro-1H-pyrrolizin-7a(5H)-yl)methoxy)-6-(trifluoromethyl)quinazolin-7-yl)-2-amino-7-fluorobenzo[b]thiophene-3-carbonitrile]: > 7.30; `Nc1nc2c(-c3c(C(F)(F)F)cc4c(N5CC6CCC(C5)N6)nc(OCC5COCC5O)nc4c3F)ccc(F)c2s1` (stereo not shown) [Example E209, 4-(((7-(2-amino-7-fluorobenzo[d]thiazol-4-yl)-4-(3,8-diazabicyclo [3.2.1]octan-3-yl)-8-fluoro-6-(trifluoromethyl)quinazolin-2-yl)oxy)methyl)tetrahydrofuran-3-ol]: > 7.30. Then `Nc1nc2c(-c3c(C(F)(F)F)cc4c(N5CC6CCC(C5)N6)nc(OCC5CCCCC5O)nc4c3F)ccc(F)c2s1` (stereo not shown) [Example E213, 2-(((7-(2-amino-7-fluorobenzo[d]thiazol-4-yl)-4-(3,8-diazabicyclo[3.2.1]octan-3-yl)-8-fluoro-6-(trifluoromethyl)quinazolin-2-yl)oxy)methyl)cyclohexan-1-ol], with > 7.30.

For the molecule `CC(=O)N1CCCC(COc2nc(N3CC4CCC(C3)N4)c3cc(Cl)c(-c4nc(N)cc(C)c4C(F)(F)F)c(F)c3n2)C1` (stereo not shown) [Example E234, 1-(3-(((7-(6-amino-4-methyl-3-(trifluoromethyl)pyridine-2-yl)-4-(3,8-diazabicyclo[3.2.1]octan-3-yl)-6-chloro-8-fluoroquinazolin-2-yl)oxy)methyl)piperidin-1-yl)ethan-1-one], the negative logarithm of the IC50 (pIC50) was 7.00 to 7.30.

For `CC1(COc2nc(N3CC4CCC(C3)N4)c3cc(C(F)(F)F)c(-c4ccc(F)c5sc(N)nc45)c(F)c3n2)CCC(=O)N1` (stereo not shown) [Example E212, 5-(((7-(2-amino-7-fluorobenzo[d]thiazol-4-yl)-4-(3,8-diazabicyclo[3.2.1]octan-3-yl)-8-fluoro-6-(trifluoromethyl)quinazolin-2-yl)oxy)methyl)-5-methylpyrrolidin-2-one], the negative logarithm of the IC50 (pIC50) was > 7.30. Consider `Cc1cc(N)nc(-c2c(Cl)cc3c(N4CC5CCC(C4)N5)nc(OCC(C#N)(CO)CO)nc3c2F)c1C(F)(F)F` [Example E205, 3-((7-(6-amino-4-methyl-3-(trifluoromethyl)pyridin-2-yl)-4-(3,8-diazabicyclo [3.2.1]octan-3-yl)-6-chloro-8-fluoroquinazolin-2-yl)oxy)-2,2-bis(hydroxymethyl) propanenitrile], for which the negative-log IC50 (pIC50) was > 7.30.

Take `Cc1cc(N)nc(-c2c(Cl)cc3c(N4CC5CCC(C4)N5)nc(OCC4(CO)CC4)nc3c2F)c1C(F)(F)F` [Example E197, (1-(((7-(6-amino-4-methyl-3-(trifluoromethyl)pyridin-2-yl)-4-(3,8-diazabicyclo[3.2.1]octan-3-yl)-6-chloro-8-fluoroquinazolin-2-yl)oxy)methyl)cyclopropyl) methanol]: the negative-log IC50 (pIC50) was > 7.30. Next, `N#CC1(COc2nc(N3CC4CCC(C3)N4)c3cc(C(F)(F)F)c(-c4ccc(F)c5sc(N)nc45)c(F)c3n2)CCOC1` (stereo not shown) [Example E211, 3-(((7-(2-amino-7-fluorobenzo[d]thiazol-4-yl)-4-(3,8-diazabicyclo [3.2.1]octan-3-yl)-8-fluoro-6-(trifluoromethyl)quinazolin-2-yl)oxy)methyl)tetrahydrofuran-3-carbonitrile]: > 7.30.

The record behind these values is US20240140957A1, “BRIDGED COMPOUNDS AS KRAS G12D INHIBITOR AND DEGRADER AND THE USE THEREOF” (BeiGene Switzerland GmbH, priority 2021, published 2024).
